Earlier results, collected in PubChem BioAssay AID1259410 (Chemical Carcinogenesis Research Information System (CCRIS), 2018).

System: rodent tumor promotion studies, tumor incidence
Assay: CCRIS tumor promotion studies
Settings: Route [Promoter]: ORAL

CCC1(c2ccccc2)C(=O)NC(=O)NC1=O
outcome (Carcinogen: DIMETHYLNITROSAMINE, 62-75-9, Doses [Carcinogen]: 5 UG/G ONCE, Doses [Promoter]: 0, 500 PPM IN THE DRINKING WATER FOR 24 WK BEGINNING POST CARCINOGEN DOSE (STUDY DURATION: 26 WK), Route [Carcinogen]: INTRAPERITONEAL, Species: MOUSE, Strain/Sex: B6C3F1/MALE): liver: adenoma
outcome (Carcinogen: METHYL(ACETOXYMETHYL)NITROSAMINE, 56856-83-8, Doses [Carcinogen]: 0.05 MMOL/KG IN 5 ML STERILE PHOSPHATE BUFFER ONCE, Doses [Promoter]: 0, 500 PPM IN DRINKING WATER BEGINNING 2 WK POST CARCINOGEN DOSE AND CONTINUING FOR 78 WK (STUDY DURATION: 80 WK), Route [Carcinogen]: INTRAPERITONEAL, Species: RAT, Strain/Sex: F344/MALE): thyroid: follicular cell adenoma or follicular cell carcinoma or c-cell tumor; l
outcome (Carcinogen: METHYLNITROSOUREA, Doses [Carcinogen]: 20 MG/KG 2/WK FOR 4 WK, Doses [Promoter]: 0.05% IN DIET FOR 32 WK, Route [Carcinogen]: INTRAPERITONEAL, Species: RAT, Strain/Sex: F344/MALE): thyroid gland: adenocarcinoma
outcome (Carcinogen: N,N-DIETHYLNITROSAMINE, 55-18-5, Doses [Carcinogen]: 75 MG/KG IN SALINE ONCE AT 5 WK OF AGE, Doses [Promoter]: 0, 500 PPM IN DIET FOR 45 WK BEGINNING 2 WK POST CARCINOGEN TREATMENT (STUDY DURATION: 47 WK), Route [Carcinogen]: INTRAPERITONEAL, Species: RAT, Strain/Sex: F344/MALE): liver: hepatocellular adenoma
outcome (Carcinogen: N,N-DIETHYLNITROSAMINE, 55-18-5, Doses [Carcinogen]: 75 MG/KG IN SALINE ONCE AT 5 WK OF AGE, Doses [Promoter]: 0, 500 PPM IN DIET FOR 46-72 WK BEGINNING 2 WK POST CARCINOGEN TREATMENT (STUDY DURATION: 46-72 WK), Route [Carcinogen]: INTRAPERITONEAL, Species: RAT, Strain/Sex: F344/MALE): liver: hepatocellular adenoma
outcome (Carcinogen: N-BIS(2-HYDROXYPROPYL)NITROSAMINE, Doses [Carcinogen]: 70 MG/100 G BW 1/WK FOR 4 OR 6 WK, Doses [Promoter]: 500 PPM IN DIET FROM WK 5-16 OR 7-18, Route [Carcinogen]: SUBCUTANEOUS, Species: RAT, Strain/Sex: WISTAR/MALE): thyroid gland: follicular, papillary, and solid adenoma, carcinoma
outcome (Carcinogen: N-METHYL-N-NITROSOUREA, 684-93-5, Doses [Carcinogen]: 30 MG/KG BW ONCE AT 3 MO OF AGE, Doses [Promoter]: 0, 50 MG/100 G IN DIET FOR 7 MO BEGINNING 7 MO POST CARCINOGEN DOSE (STUDY DURATION: 14 MO), Route [Carcinogen]: INTRAVENOUS, Species: RAT, Strain/Sex: LOBUND-WISTAR/MALE): prostate/seminal vesicle: adenocarcinoma
outcome (Carcinogen: N-METHYL-N-NITROSOUREA, 684-93-5, Doses [Carcinogen]: 30 MG/KG BW ONCE, Doses [Promoter]: 0, 0.5% IN DIET FOR DURATION OF STUDY BEGINNING POST CARCINOGEN DOSE(STUDY DURATION: 14 MO), Route [Carcinogen]: INTRAVENOUS, Species: RAT, Strain/Sex: LOBUND-WISTAR/MALE): lung: carcinoma, prostate/seminal vesicles: tumor
outcome (Carcinogen: N-NITROSODIETHYLAMINE, 55-18-5, Doses [Carcinogen]: 5 UG/G BW ONCE AT 15 D OF AGE, Doses [Promoter]: 0, 500 PPM IN DRINKING WATER BEGINNING AT 4 WK OF AGE AND CONTINUING FOR DURATION OF STUDY (STUDY DURATION: 28 WK), Route [Carcinogen]: INTRAPERITONEAL, Species: MOUSE, Strain/Sex: C3H/HENCR/FEMALE): liver: hepatocellular adenoma
outcome (Carcinogen: N-NITROSODIETHYLAMINE, 55-18-5, Doses [Carcinogen]: 5 UG/G BW ONCE AT 15 D OF AGE, Doses [Promoter]: 0, 500 PPM IN DRINKING WATER BEGINNING AT 4 WK OF AGE AND CONTINUING FOR DURATION OF STUDY (STUDY DURATION: 28 WK), Route [Carcinogen]: INTRAPERITONEAL, Species: MOUSE, Strain/Sex: C3H/HENCR/MALE): liver: hepatocellular adenoma
outcome (Carcinogen: N-NITROSODIETHYLAMINE, 55-18-5, Doses [Carcinogen]: 75 MG IN STERILE SALINE ONCE, Doses [Promoter]: 0, 500 PPM IN DIET BEGINNING 2 WK POST CARCINOGEN DOSE AND CONTINUING FOR DURATION OF STUDY (STUDY DURATION: 78 WK), Route [Carcinogen]: INTRAPERITONEAL, Species: RAT, Strain/Sex: F344/MALE): liver: hepatocellular adenoma or carcinoma; thyroid gland: follicular cell adeno
outcome (Carcinogen: N-NITROSODIETHYLAMINE, 55-18-5, Doses [Carcinogen]: 75 MG ONCE, Doses [Promoter]: 0, 500 PPM IN DRINKING WATER BEGINNING 2 WK POST CARCINOGEN DOSE AND CONTINUING FOR DURATION OF STUDY (STUDY DURATION: 5, Route [Carcinogen]: INTRAPERITONEAL, Species: RAT, Strain/Sex: F344/MALE): liver: hepatocellular adenoma
outcome (Carcinogen: N-NITROSODIETHYLAMINE, 55-18-5, Doses [Carcinogen]: 75 MG ONCE, Doses [Promoter]: 0, 500 PPM IN DRINKING WATER BEGINNING 2 WK POST CARCINOGEN DOSE AND CONTINUING FOR DURATION OF STUDY (STUDY DURATION: 7, Route [Carcinogen]: INTRAPERITONEAL, Species: RAT, Strain/Sex: F344/MALE): liver: hepatocellular carcinoma; thyroid gland: follicular cell adenoma or adeno
outcome (Carcinogen: N-NITROSODIETHYLAMINE, 55-18-5, Doses [Carcinogen]: 90 MG/KG BW ONCE, Doses [Promoter]: 0, 500 PPM IN DIET FOR 53 WK BEGINNING 2 WK POST CARCINOGEN DOSE (STUDY DURATION: 55 WK), Route [Carcinogen]: INTRAPERITONEAL, Species: MOUSE, Strain/Sex: D2B6F1/MALE): liver: hepatocellular adenoma, hepatocellular carcinoma, hepatoblastoma
outcome (Carcinogen: N-NITROSODIETHYLAMINE, 7119-92-8, Doses [Carcinogen]: 80 MG/KG ONCE, Doses [Promoter]: 0, 500 PPM IN DIET BEGINNING 1 WK POST CARCINOGEN DOSE AND CONTINUING FOR 168 D (STUDY DURATION: 259 D), Route [Carcinogen]: INTRAPERITONEAL, Species: MOUSE, Strain/Sex: B6C3F1/MALE): liver: hepatocellular adenoma or carcinoma
outcome (Carcinogen: TAMOXIFEN, 10540-29-1, Doses [Carcinogen]: 420 PPM IN DIET FOR 3 MO, Doses [Promoter]: 0, 0.1% (W/V) IN DRINKING WATER FOR LIFE BEGINNING POST CARCINOGEN TREATMENT (STUDY DURATION: LIFETIME), Route [Carcinogen]: ORAL, Species: RAT, Strain/Sex: WISTAR/FEMALE): liver: tumor
